Reference: patent US20210332024A1, “MODULATORS OF PIN1 ACTIVITY AND USES THEREOF” (Yeda Research and Development Co. Ltd., priority 2019, published 2021)
“And” between values parts separate entries of the source, which are not always exact repeats. Equal entries are not always repeated. Where two headings read alike, the source gives them in different places.

Columns and labels:
[1] = Metabolic stability in hepatic microsomes; type: in vitro ADME; details: liver microsomes; mouse hepatic microsomes
GST-Pin1 = GST-Pin1 (Homo sapiens, UniProt Q13526); assay: Pin1 substrate activity assay (chymotrypsin-coupled PPIase assay); type: biochemical; details: pre-incubation 12 hours at 4° C.
Chain of GST-Pin1 (Q13526 whole entry): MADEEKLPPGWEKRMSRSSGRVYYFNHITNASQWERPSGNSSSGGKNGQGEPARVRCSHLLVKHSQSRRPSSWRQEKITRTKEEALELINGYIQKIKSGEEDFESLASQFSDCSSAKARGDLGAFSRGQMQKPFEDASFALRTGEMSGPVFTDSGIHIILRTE
Protocol: Inhibition of Pin1 isomerase activity was determined using the chymotrypsin-coupled PPIase assay, using GST-Pin1 and Suc-Ala-pSer-Pro-Phe-pNA (SEQ ID NO: 2) peptide substrate ([…]), according to procedures described by Yaffe [Science 1997, 278:1957-1960]. GST-Pin1 was pre-incubated with the indicated concentrations of compound for 12 hours at 4° C. in buffer containing 35 mM HEPES (pH 7.8), 0.2 mM DTT, and 0.1 mg/ml BSA (bovine serum albumin). Immediately before the assay was started, chymotrypsin (final concentration of 6 mg/ml), followed by the peptide substrate (Suc-Ala-pSer-Pro-Phe-pNA (SEQ ID NO: 2) peptide substrate, final concentration […]) was added. The apparent Ki value (under the tested conditions) obtained from the PPIase assay was derived from the Cheng-Prusoff equation: […]
wherein Km is the Michaelis constant for the used substrate, S is the initial concentration of the substrate in the assay, and IC50 is the half-minimal inhibitory concentration of the inhibitor.
Covalent labeling of Pin1 was confirmed to translate into enzyme inhibition via a fluorescence polarization (FP) competition assay using a FITC-labeled substrate mimetic peptide inhibitor, as well as a chymotrypsin-coupled PPIase assay, using procedures described in Wei et al. [Nat Med 2015, 21:457-466].

[2] = Thiol reactivity assay (DTNB); type: physicochemical; details: 200 μM compound, pH 7.4, 37° C.
Protocol: 50 μM DTNB (dithionitrobenzoic acid) was incubated with 200 μM TCEP (tris(2-carboxytehyl)phosphine) in 20 mM sodium phosphate buffer (pH 7.4) with 150 mM NaCl, for 5 minutes at room temperature, in order to obtain TNB^2− (thionitrobenzoate dianion). 200 μM compounds were subsequently added to the TNB^2−, followed by immediate UV absorbance measurement at 412 nm (at 37° C.). The UV absorbance was acquired every 15 minutes for 7 hours. The assay was performed in a 384-well plate using a Spark™ 10M plate reader (Tecan). Background absorbance of compounds was subtracted by measuring the absorbance at 412 nm of each compound under the same conditions without DTNB. Compounds were measured in triplicates. The data was fitted to a second order reaction equation such that the rate constant k is the slope of ln([A][B0]/[B][A0]), where [A0] and [B0] are the initial concentrations of the compound (200 μM) and TNB^2− (100 μM) respectively, and [A] and [B] are the remaining concentrations as a function of time, as determined from the spectrometric measurement. Linear regression using Prism® software was performed to fit the rate against the first four hours of measurements.
In order to estimate the influence of the various lipophilic moieties on “warhead” reactivity [Flanagan et al., J Med Chem 2014, 57:10072-10079; Lonsdale et al., J Chem Inf Model 2017, 57:3124-3137; Dahal et al., Medchemcomm 2016, 7:864-872], the thiol reactivity of the top ten binders of the second and third generation was assessed using a high-throughput assay previously applied to the entire fragment library, as described in Resnick et al. [J Am Chem Soc 2019, 141:8951-8968]. In brief, the second-order rate constant was evaluated for a model thiol, which reflects trends in general reactivity towards thiol groups.

[3] = Pharmacokinetics, intravenous administration; type: in vivo, Male C57Bl/6J mice
Protocol: Male C57Bl/6J mice received Pin1-3 intravenously (as a 0.2 mg/ml solution in 5/5/90 NMP/Solutol/saline) or orally (as a 1 mg/ml solution in 5/5/90 NMP/Solutol/saline). The intravenous dosage was 2 mg/kg and the oral dosage was 10 mg/kg.

[4] = intravenous 2 mg/kg, individual mice No. 1-3, 2 mg/kg
[5] = male, C57Bl/6J, mouse, in vivo, iv, 2 mg/kg, Avg. of 3 mice
[6] = male, C57Bl/6J, mouse, in vivo, iv, 2 mg/kg, individual mice No. 1-3

Question: For `CC(C)(C)CN(C(=O)CCl)C1CCS(=O)(=O)C1` (centres unmarked) [Pin1-3, 2-chloro-N-(sulfolan-3-yl)-N-neopentylacetamide], which half-life [1] is on record?
Answer: 41 min

Question: And the IC50 (GST-Pin1)?
Answer: 103 nM

Question: And the “Reactivity Log k” value [2]?
Answer: −7.43

Question: And the Reactivity k [2]?
Answer: 3.73e-08 M⁻¹ s⁻¹

Question: And the AUC % extrap. ([3]; intravenous 2 mg/kg, Avg. of 3 mice)?
Answer: 0.23%

Question: And the AUC % extrap. [3, 4]?
Answer: 0.36% and 0.17% and 0.18%

Question: And the AUCINF obs. [3, 4]?
Answer: 294012 ng·min/mL and 365536 ng·min/mL

Question: And the AUClast [3, 4]?
Answer: 293517 min*ng/ml and 17.4 hr*μM and 364891 min*ng/ml and 21.6 hr*μM

Question: And the Cl obs. [3, 4]?
Answer: 6.80 mL/min/kg and 5.47 mL/min/kg

Question: What about the Cmax [3, 4] of the same compound?
Answer: 1620 ng/mL and 2030 ng/mL

Question: And the MRTINF obs. [3, 4]?
Answer: 113 min and 109 min

Question: And the T1/2 [3, 4]?
Answer: 40.8 min and 43.2 min

Question: And the VSS obs. [3, 4]?
Answer: 0.77 L/kg and 0.60 L/kg

Question: What about the Cmax ([3]; intravenous 2 mg/kg, individual mice No. 1-3, 2 mg/kg, read-out: Cmax) of the same compound?
Answer: 5.76 µM and 7.22 µM

Question: What about the AUC(0-t) [3, 5] of the same compound?
Answer: 6050 ng·h/mL and 21.5 µM·h

Question: What about the half-life [3, 5] of the same compound?
Answer: 45.6 min

Question: And the AUC(0-inf) ([3]; male, C57Bl/6J, mouse, in vivo, iv, 2 mg/kg, Avg. of 3 mice, read-out: AUCINF obs. (converted))?
Answer: 6070 ng·h/mL

Question: What about the clearance ([3]; male, C57Bl/6J, mouse, in vivo, iv, 2 mg/kg, Avg. of 3 mice, read-out: Cl obs.) of the same compound?
Answer: 5.63 mL/min/kg

Question: And the Cmax ([3]; male, C57Bl/6J, mouse, in vivo, iv, 2 mg/kg, Avg. of 3 mice, read-out: Cmax)?
Answer: 2090 ng/mL and 7.42 µM

Question: What about the MRT inf ([3]; male, C57Bl/6J, mouse, in vivo, iv, 2 mg/kg, Avg. of 3 mice, read-out: MRTINF obs.) of the same compound?
Answer: 108 min

Question: What about the Vd ([3]; male, C57Bl/6J, mouse, in vivo, iv, 2 mg/kg, Avg. of 3 mice, read-out: VSS obs.) of the same compound?
Answer: 0.61 L/kg

Question: What about the AUC(0-t) [3, 6] of the same compound?
Answer: 7190 ng·h/mL and 25.6 µM·h

Question: And the half-life [3, 6]?
Answer: 53.4 min

Question: And the AUC(0-inf) ([3]; male, C57Bl/6J, mouse, in vivo, iv, 2 mg/kg, individual mice No. 1-3, read-out: AUCINF obs. (converted))?
Answer: 7210 ng·h/mL

Question: And the clearance ([3]; male, C57Bl/6J, mouse, in vivo, iv, 2 mg/kg, individual mice No. 1-3, read-out: Cl obs.)?
Answer: 4.62 mL/min/kg

Question: And the Cmax ([3]; male, C57Bl/6J, mouse, in vivo, iv, 2 mg/kg, individual mice No. 1-3, read-out: Cmax)?
Answer: 2610 ng/mL and 9.28 µM

Question: What about the MRT inf ([3]; male, C57Bl/6J, mouse, in vivo, iv, 2 mg/kg, individual mice No. 1-3, read-out: MRTINF obs.) of the same compound?
Answer: 102 min

Question: What about the Vd ([3]; male, C57Bl/6J, mouse, in vivo, iv, 2 mg/kg, individual mice No. 1-3, read-out: VSS obs.) of the same compound?
Answer: 0.47 L/kg

Question: What about the Tmax ([3]; male, C57Bl/6J, mouse, in vivo, intravenous 2 mg/kg, individual mice No. 1-3) of the same compound?
Answer: 30 min
